# Measured values from paper PMC7821884, “BRAF inhibition protects against hearing loss in mice” (Science Advances, 2020).
# Tests used:
# P42 FVB mice = test: Noise-induced hearing loss in adult mice (ABR, DPOAE, Ctbp2 puncta, pERK); type: in vivo, mouse
# Method: Noise injury cannot always be predicted, and pretreatment is often not an option.
# Compounds were dissolved in a mixture of 10% DMSO, 5% Tween 80 (P1754, Sigma-Aldrich), 40% PEG-E-300 (91462-1KG, Sigma-Aldrich), and 45% 0.9% saline.
# ABR in mice was measured for left ears as described previously with minor modifications ([13], [34]). In brief, ABR waveforms were recorded in a sound booth (Industrial Acoustic Company) by using subdermal needles positioned in the skull, below the pinna, and at the base of the tail, and the responses were fed into a low-impedance Medusa digital biological amplifier system (RA4L; TDT; 20-dB gain). At each frequency, the stimulus intensity was reduced from 90 to 0 dB in 10-dB steps to determine the threshold decibel SPL when the electrical response was just above the noise floor. ABR waveforms were averaged in response to 500 tone bursts. The recorded signals were filtered by a band-pass filter from 300 Hz to 3 kHz. Pretreatment ABR recordings of adult FVB mice (aged 6 weeks) were acquired 1 week before all treatments, and posttreatment ABR measurements were recorded 21 days after cisplatin treatment or 14 days after noise exposure. ABR threshold was determined by the presence of any of three or more of the five waveform peaks. […] All thresholds and shifts were determined independently by two experimenters for each mouse. Individual ABR wave 1 amplitudes were measured as the difference between the positive peak and the following negative trough.
# Mice were placed in individual cages in a custom-made acrylic chamber. The sound stimulus was produced by System RZ6 (TDT) equipment and amplified using a 75-A power amplifier (Crown). Sound was delivered to the acrylic chamber via a speaker horn (JBL). The SPL was calibrated with a 1/4-inch free-field microphone (PCB). Before experimental noise exposure, four quadrants of the cage inside the chamber were sampled with the 1/4-inch microphone to ensure that the SPL varied by <0.5 dB across the measured positions. Adult mice were then exposed to 2 hours of octave band noise (8 to 16 kHz) at 100 dB.
# Organs of Corti were costained with anti-Ctbp2 and anti–myosin VI antibodies. Confocal imaging was performed using a Zeiss 700 scanning confocal microscope with a 63× objective. Visualization and projections were performed using ZEN 2009 or ZEN 2012 software (Zeiss). Ctbp2 puncta were visualized and counted on the reconstructed three-dimensional images by using the ZEN 2009 or ZEN 2012 three-dimensional construct function as previously reported ([54]). […] Images were acquired around 16-kHz cochlear regions, and each image included 12 to 18 IHCs that were quantified as total number of Ctbp2 puncta divided by total number of IHCs per image.
# SHP-77 small cell = test: Tumor Cell Titer-Glo viability assay, SHP-77; type: cell-based, human
# Description: (§1) In clinical settings, cisplatin is used to treat several tumor types, including neuroblastoma and lung carcinoma. […] Medium-alone–, cisplatin-alone–, and dabrafenib-alone–treated cells were used as controls, and viability was reported as percent survival compared to medium alone (Fig. 4E).
# (§2) Three human neuroblastoma cell lines IMR-32, SH-SY5Y, and, SK-N-AS, as well as three human lung carcinoma cell lines SHP-77 small cell, H1155 non–small cell, and A549 non–small cell, were used to determine the compounds’ effect on cisplatin’s tumor-killing efficacy ([77]–[83]). Cell lines were purchased from the American Type Culture Collection (ATCC), and cell culture was conducted according to ATCC specifications. Neuroblastoma cell lines IMR-32 and SH-SY5Y are maintained in Dulbecco’s modified Eagle’s medium (DMEM) 1× with glucose (4.5 g/liter), L-glutamine, and sodium pyruvate (10-013-CV, Corning) with 10% fetal bovine serum (FBS) (35011132, Corning) and ampicillin (50 μg/ml; A5354-10ML, Sigma-Aldrich) added. The SK-N-AS cell line is maintained in DMEM 1× with D-glucose (4.5 g/liter), L-glutamine, and 25 mM Hepes (12430-054, Gibco) with 10% FBS, 0.1 mM nonessential amino acids, and ampicillin (50 μg/ml) added. A549 cells are maintained in F-12K medium with L-glutamine (30-2004, ATCC) with 10% FBS and ampicillin (50 μg/ml) added. […]
# [1] = test system: P3-P4 FVB mouse cochlear explants; details: FVB, mouse, 24 h
# Method: Mouse cochlear explants are widely recognized as an alternative to in vivo cochlear models and pragmatic for focused drug screening ([37]). […] Medium-alone, drug-alone, and cisplatin-alone treatments were used as controls.
# P3-P4 FVB mouse cochleae were dissected and maintained in culture on filter inserts in six-well plates with 1 ml of growth medium DMEM (12430-054,Gibco Life Technologies), with 1% FBS (16000-044, Gibco Life Technologies), B-27 supplement (200 μl/500 ml; 17504-44, Gibco Life Technologies), N-2 supplement (100 μl/500 ml; 17502-048, Gibco Life Technologies), and ampicillin (50 μg/ml; A5354-10ML, Sigma-Aldrich) both inside and outside the filter (Millicell, PICM03050, Millipore). […] Cochleae were imaged by confocal microscopy, two 160-μm regions from middle turns were photographed, and the number of intact HCs was counted. Two to five independent cochleae were tested for each experimental condition.
# IMR-32 = test: Tumor Cell Titer-Glo viability assay, IMR-32; type: cell-based, human; details: IMR-32, 35 μM + 15 μM cisplatin, 48 hours
# Description: as §1, §2
# [2] = cited from earlier work
compound,measurement,setting,value
CC(C)(C)c1nc(-c2cccc(NS(=O)(=O)c3c(F)cccc3F)c2F)c(-c2ccnc(N)n2)s1 [dabrafenib],loss of Ctbp2 puncta per IHC at 16-kHz region,P42 FVB mice; 100 mg/kg pretreatment,partially rescued
same,effect on noise-reduced 16-kHz ABR wave 1 amplitude,"P42 FVB mice; 100 mg/kg pretreatment, 80- and 90-dB SPL",significantly mitigated
same,noise-induced ERK phosphorylation in SCs,"P42 FVB mice; pretreatment, 3 hours after noise",reduced ERK phosphorylation
same,effect on tumor cell death when combined with cisplatin,"SHP-77 small cell; SHP-77, 35 μM + 15 μM cisplatin, 48 hours",increased tumor cell death
same,"cell survival, drug treatment alone","SHP-77 small cell; SHP-77, 35 μM, no cisplatin",significant inhibition
same,LD50 (median lethal dose),[1],> 60 µM
same,effect on tumor cell death when combined with cisplatin,IMR-32,increased tumor cell death
same,half-life in circulation,[2],roughly 8 hours
